Here are results for 20 molecules from patent publication US20260102507A1, “CAMPTOTHECIN DERIVATIVE FOR TREATING OR PREVENTING CANCER AND ANTIBODY-DRUG CONJUGATE THEREOF” (CHENGDU BRILLIANT PHARMACEUTICAL CO., LTD., priority 2023, published 2026).

Each structure is given as a SMILES string.

Common to all, as to experiment: Cytotoxicity assay of camptothecin derivative toxins (Example A)
Holding throughout (format): cell-based

The test system of experiment [1] is human colon cancer cell line HCT116. The note with it: 3 days incubation, Cell Titer Turbo 2.0 luminescent cell viability. As to the method: (§1) Tumor cells (human ovarian cancer cell line SK-OV-3; human colon cancer cell line HCT116; human lung adenocarcinoma cell line A549) in logarithmic growth phase were digested and adjusted to a density of approximately 3×10^4 cells/mL. The cells were plated on a white-walled 96-well plate at approximately 100 μL/well. The camptothecin derivative toxins of the Examples of the present application were serially diluted with the corresponding cell culture medium, and then mixed with the cells for incubation at 37° C. in a 5% CO2 incubator for 3 days. The growth inhibitory effect of the camptothecin derivative toxins on tumor cells was assessed by the Cell Titer Turbo 2.0 Luminescent Cell Viability Assay (Damas life, RA-GL11). Relative light unit (RLU) values were read from the cell culture plate using a microplate reader. Experimental data were analyzed using GraphPad Prism 8.0 software to calculate IC50 values. The above experiment was repeated using the following compounds as positive controls: […]

Experiment [2] has as its system human lung adenocarcinoma cell line A549. To be noted: 3 days incubation, Cell Titer Turbo 2.0 luminescent cell viability. Here is the method: as §1
Experiment [3] deals with human ovarian cancer cell line SK-OV-3. To be noted: for IC50: 3 days incubation, Cell Titer Turbo 2.0 luminescent cell viability; for tumor cell killing activity: in words, overall statement on Table 2 tumor cells, compared with SN-38 and Dxd. Here is the method:
as §1

What is called IC50 is the concentration that inhibits the measured activity by half.

As for `CC[C@@]1(O)C(=O)OCc2c1cc1n(c2=O)Cc2c-1nc1cc(F)c(C)c3c1c2[C@@H](NC(=O)CO)CC3` [DXD, Dxd, reference compound], the IC50 was 49.3 nM in experiment [1], 413 nM in experiment [2] and 41.4 nM in experiment [3].
Take `CCc1c2c(nc3ccc(O)cc13)-c1cc3c(c(=O)n1C2)COC(=O)[C@]3(O)CC` [SN-38, reference compound]: the IC50 in experiment [1] (Homo sapiens, HCT-116, 72 h) was 60.5 nM; in experiment [2] (Homo sapiens, A549, 72 h) it was 523 nM; in experiment [3] (Homo sapiens, SK-OV-3, 72 h) it was 30.9 nM.
Regarding `CC[C@@]1(O)C(=O)OCc2c1cc1n(c2=O)Cc2c-1nc1cc(F)c(C)cc1c2CNCC1CCCC1` [STI-A2, (S)-4-ethyl-4-hydroxy-8-fluoro-9-methyl-11-(((cyclopentylmethyl)amino)methyl)-1,12-dihydro-14H-pyrano[3′,4′:6,7]indolizino[1,2-b]quinoline-3,14(4H)-dione], the half-inhibitory concentration (IC50) is 52.5 nM in experiment [1] (Homo sapiens, HCT-116, 72 h); 107 nM in experiment [2] (Homo sapiens, A549, 72 h); 30.8 nM in experiment [3] (Homo sapiens, SK-OV-3, 72 h). Further, the “tumor cell killing activity” value in experiment [3] is “comparable to that of SN-38 and Dxd”.
Turning to `CC[C@@]1(O)C(=O)OCc2c1cc1n(c2=O)Cc2c-1nc1cc(F)c(C)cc1c2CNCC(C)(C)C` [STI-A, (S)-4-ethyl-4-hydroxy-8-fluoro-9-methyl-11-((neopentylamino)methyl)-1,12-dihydro-14H-pyrano[3′,4′:6,7]indolizino[1,2-b]quinoline-3,14(4H)-dione], the IC50 was 39.9 nM in experiment [1] (Homo sapiens, HCT-116, 72 h); 115 nM in experiment [2] (Homo sapiens, A549, 72 h); 29.3 nM in experiment [3] (Homo sapiens, SK-OV-3, 72 h). In addition, in experiment [3], the “tumor cell killing activity” value is “comparable to that of SN-38 and Dxd”.
For `CC[C@@]1(O)C(=O)OCc2c1cc1n(c2=O)Cc2c-1nc1cc(F)c(C)cc1c2CCl` [STI-A-4, (S)-4-ethyl-4-hydroxy-8-fluoro-9-methyl-11-(chloromethyl)-1,12-dihydro-14H-pyrano[3′,4′:6,7]indolizino[1,2-b]quinoline-3,14(4H)-dione], the IC50 in experiment [1] (Homo sapiens, HCT-116, 72 h) turned out to be 222 nM; in experiment [2] (Homo sapiens, A549, 72 h), 757 nM; in experiment [3] (Homo sapiens, SK-OV-3, 72 h), 71.8 nM.
The matching figures for `CC[C@@]1(O)C(=O)OCc2c1cc1n(c2=O)Cc2c-1nc1cc3c(cc1c2CCCCO)OCO3` [STI-E, (S)-7-ethyl-7-hydroxy-14-(4-hydroxybutyl)-10,13-dihydro-11H-[1,3]dioxolo[4,5-g]pyrano[3′,4′:6,7]indolizino[1,2-b]quinoline-8,11(7H)-dione]: 1740 nM, 1060 nM and 403 nM.
As to `CC[C@@]1(O)C(=O)OCc2c1cc1n(c2=O)Cc2cc3cc4c(cc3nc2-1)OCO4` [STI-E-05, (S)-7-ethyl-7-hydroxy-10,13-dihydro-11H-[1,3]dioxolo[4,5-g]pyrano[3′,4′:6,7]indolizino[1,2-b]quinoline-8,11(7H)-dione], the IC50 in experiment [1] (Homo sapiens, HCT-116, 72 h) turned out to be 32.9 nM; in experiment [2] (Homo sapiens, A549, 72 h) it was 70.3 nM; in experiment [3] (Homo sapiens, SK-OV-3, 72 h), 12.7 nM. Moreover, the “tumor cell killing activity” value in experiment [3] is “comparable to that of SN-38 and Dxd”.
For `CC[C@@]1(O)C(=O)OCc2c1cc1n(c2=O)Cc2c-1nc1cc(F)c(C)cc1c2NC(=O)CO` [STI-F2, (S)—N-(4-ethyl-4-hydroxy-8-fluoro-9-methyl-3,14-dioxo-3,4,12,14-tetrahydro-1H-pyrano[3′,4′:6,7]indolizino[1,2-b]quinolin-11-yl)-2-hydroxyacetamide], the IC50 in experiment [1] (Homo sapiens, HCT-116, 72 h) came out at 945 nM; in experiment [2] (Homo sapiens, A549, 72 h) it was 2370 nM; in experiment [3] (Homo sapiens, SK-OV-3, 72 h) it was 317 nM.
In experiment [3] (Homo sapiens, SK-OV-3, 72 h), `CC[C@@]1(O)C(=O)OCc2c1cc1n(c2=O)Cc2c-1nc1cc(F)c(C)cc1c2NCCCCO` [STI-F6, (S)-4-ethyl-8-fluoro-4-hydroxy-9-methyl-11-((4-hydroxybutyl)amino)-1,12-dihydro-14H-pyrano[3′,4′:6,7]indolizino[1,2-b]quinoline-3,14(4H)-dione] yielded a concentration for half-maximal inhibition (IC50) of 2.65 nM. In addition, the “tumor cell killing activity” value in experiment [3] is “significantly superior to that of SN-38 and Dxd”.
Consider `CC[C@@]1(O)C(=O)OCc2c1cc1n(c2=O)Cc2c-1nc1cc(F)c(C)cc1c2NCCCCN` [STI-F7, (S)-11-((4-aminobutyl)amino)-4-ethyl-8-fluoro-4-hydroxy-9-methyl-1,12-dihydro-14H-pyrano[3′,4′:6,7]indolizino[1,2-b]quinoline-3,14(4H)-dione], for which, in experiment [3] (Homo sapiens, SK-OV-3, 72 h), the half-maximal inhibitory concentration (IC50) stood at 285 nM.
`CCCCCNc1c2c(nc3cc(F)c(C)cc13)-c1cc3c(c(=O)n1C2)COC(=O)[C@]3(O)CC` [STI-F13, (S)-4-ethyl-8-fluoro-4-hydroxy-9-methyl-11-(pentylamino)-1,12-dihydro-14H-pyrano[3′,4′:6,7]indolizino[1,2-b]quinoline-3,14(4H)-dione]: half-maximal inhibition in experiment [3] (Homo sapiens, SK-OV-3, 72 h) (IC50) required 2.37 nM.
As for `CC[C@@]1(O)C(=O)OCc2c1cc1n(c2=O)Cc2c-1nc1cc(F)c(C)cc1c2NC(=O)C(O)C1CC1` (stereo partly drawn) [STI-F, 2-cyclopropyl-N—((S)-4-ethyl-8-fluoro-4-hydroxy-9-methyl-3,14-dioxo-3,4,12,14-tetrahydro-1H-pyrano[3′,4′:6,7]indolizino[1,2-b]quinolin-11-yl)-2-hydroxyacetamide], in experiment [3] (Homo sapiens, SK-OV-3, 72 h), inhibition was half-maximal at 45.5 nM (IC50). In addition, the “tumor cell killing activity” value in experiment [3] was “comparable to that of SN-38 and Dxd”.
Turning to `CC[C@@]1(O)C(=O)OCc2c1cc1n(c2=O)Cc2c-1nc1cc(F)c(C)cc1c2C(=O)O` [STI-F-01, (S)-4-ethyl-8-fluoro-4-hydroxy-9-methyl-3,14-dioxo-3,4,12,14-tetrahydro-1H-pyrano[3′,4′:6,7]indolizino[1,2-b]quinoline-11-carboxylic acid], the concentration for half-maximal inhibition (IC50) in experiment [1] (Homo sapiens, HCT-116, 72 h) was determined as 322 nM; in experiment [2] (Homo sapiens, A549, 72 h), 1050 nM; in experiment [3] (Homo sapiens, SK-OV-3, 72 h), 131 nM.
For `CC[C@@]1(O)C(=O)OCc2c1cc1n(c2=O)Cc2c-1nc1cc(F)c(C)cc1c2N` [STI-F-03C-1, (S)-4-ethyl-4-hydroxy-8-fluoro-9-methyl-11-amino-1,12-dihydro-14H-pyrano[3′,4′:6,7]indolizino[1,2-b]quinoline-3,14(4H)-dione], the half-inhibitory concentration (IC50) stood at 38.2 nM in experiment [1] (Homo sapiens, HCT-116, 72 h); 1080 nM in experiment [2] (Homo sapiens, A549, 72 h); 19.9 nM in experiment [3] (Homo sapiens, SK-OV-3, 72 h). Besides, the “tumor cell killing activity” value in experiment [3] is “comparable to that of SN-38 and Dxd”.
As for `CC[C@@]1(O)C(=O)OCc2c1cc1n(c2=O)Cc2cc3cc(C)c(F)cc3nc2-1` [STI-F-8, (S)-4-ethyl-4-hydroxy-8-fluoro-9-methyl-1,12-dihydro-14H-pyrano[3′,4′:6,7]indolizino[1,2-b]quinoline-3,14(4H)-dione], the half-maximal inhibitory concentration (IC50) in experiment [1] (Homo sapiens, HCT-116, 72 h) is 26.6 nM; in experiment [2] (Homo sapiens, A549, 72 h), 52.8 nM; in experiment [3] (Homo sapiens, SK-OV-3, 72 h) it was 12.4 nM. The “tumor cell killing activity” value in experiment [3] is “comparable to that of SN-38 and Dxd”.
Take `CCCCCNc1c2c(nc3cc(F)c(C)cc13)-c1cc3c(c(=O)n1C2)COC(=O)[C@]3(O)CC` [STI-F-13]: in experiment [3], the “tumor cell killing activity” value is “significantly superior to that of SN-38 and Dxd”.
Take `CCCCCc1c2c(nc3cc(F)c(N)cc13)-c1cc3c(c(=O)n1C2)COC(=O)[C@]3(O)CC` [STI-G1, (S)-4-ethyl-4-hydroxy-8-fluoro-9-amino-11-pentyl-1,12-dihydro-14H-pyrano[3′,4′:6,7]indolizino[1,2-b]quinoline-3,14(4H)-dione]: the IC50 in experiment [1] (Homo sapiens, HCT-116, 72 h) was found to be 11 nM; in experiment [2] (Homo sapiens, A549, 72 h) it was 9.52 nM; in experiment [3] (Homo sapiens, SK-OV-3, 72 h), 3.7 nM. Also, in experiment [3], the “tumor cell killing activity” value is “significantly superior to that of SN-38 and Dxd”.
In the case of `CCCSCc1c2c(nc3cc(F)c(N)cc13)-c1cc3c(c(=O)n1C2)COC(=O)[C@]3(O)CC` [STI-G2, (S)-9-amino-4-ethyl-8-fluoro-4-hydroxy-11-((propylthio)methyl)-1,12-dihydro-14H-pyrano[3′,4′:6,7]indolizino[1,2-b]quinoline-3,14(4H)-dione], the IC50 in experiment [1] (Homo sapiens, HCT-116, 72 h) amounted to 11 nM; in experiment [2] (Homo sapiens, A549, 72 h), 14.9 nM; in experiment [3] (Homo sapiens, SK-OV-3, 72 h), 2.19 nM. For the same molecule, the “tumor cell killing activity” value in experiment [3] is “significantly superior to that of SN-38 and Dxd”.
As to `CCCSCc1c2c(nc3cc(F)c(Br)cc13)-c1cc3c(c(=O)n1C2)COC(=O)[C@]3(O)CC` [STI-G2-06C, (S)-9-bromo-4-ethyl-8-fluoro-4-hydroxy-11-((propylthio)methyl)-1,12-dihydro-14H-pyrano[3′,4′:6,7]indolizino[1,2-b]quinoline-3,14(4H)-dione], the IC50 in experiment [1] (Homo sapiens, HCT-116, 72 h) is 81.3 nM; in experiment [2] (Homo sapiens, A549, 72 h) it was 216 nM; in experiment [3] (Homo sapiens, SK-OV-3, 72 h) it was 57.8 nM. Also, the “tumor cell killing activity” value in experiment [3] is “comparable to that of SN-38 and Dxd”.
As for `CCCCCc1c2c(nc3cc(F)c([N+](=O)[O-])cc13)-c1cc3c(c(=O)n1C2)COC(=O)[C@]3(O)CC` [STI-G03, (S)-4-ethyl-4-hydroxy-8-fluoro-9-nitro-11-pentyl-1,12-dihydro-14H-pyrano[3′,4′:6,7]indolizino[1,2-b]quinoline-3,14(4H)-dione], the IC50 in experiment [1] (Homo sapiens, HCT-116, 72 h) was 268 nM; in experiment [2] (Homo sapiens, A549, 72 h) it was 322 nM; in experiment [3] (Homo sapiens, SK-OV-3, 72 h), 137 nM.
